# “Also recorded” adds a separate entry of the source.
# Assays:
# [1] = Body weight change from day -2 in LPS-induced lung inflammation model; format: in vivo, mice; conditions: vs vehicle disease control; for body weight change from day -2: 6 hours post-LPS
# From the text: (§1) All animals survived to study termination.
# Body weight measurements were collected and the animals were euthanized for necropsy and terminal sample collection on day 0 or day 1.
# The mice were weighed for randomization on study day −2 and were weighed again on day 0.
# [2] = test system: hospitalized patients with coronavirus disease 2019 (COVID-19); experiment: Randomized, double-blind, placebo-controlled clinical trial for prevention and treatment of ARDS; format: in vivo, human; conditions: 900 mg once daily for 14 days
# Method: This example describes use of 5-(3-chlorophenyl)-3-hydroxypyridine-2-carbonyl]amino}acetic acid (vadadustat) in a multicenter, randomized, double-blind, placebo-controlled Bayesian adaptive clinical for the prevention and treatment of acute respiratory distress syndrome (ARDS) in hospitalized patients with coronavirus disease 2019 (COVID-19).
# Following screening, patients are randomized in a 1:1 ratio to either vadadustat 900 mg or placebo. Randomization is stratified by site, and MSOFA score at baseline (<4 and >4).
# A subject may receive vadadustat (e.g., 900 mg vadadustat as 6 tablets once daily) for 14 days and without regard for meals at approximately the same time each day. Tablets can be crushed using a pill crusher and administered to an intubated patient through a nasogastric tube.
# Efficacy may also be assessed according to any of the following (including any combination thereof): • 1. The proportion of patients at day 14 who are dead (8) or hospitalized, on invasive mechanical ventilation or ECMO (7) or hospitalized, on non-invasive ventilation or high flow oxygen devices (6) on the NIAID-OS. • 2. Proportions of patients with a score of 0 at 14 days on the MSOFA (Modified Sequential Organ Failure Assessment) scale:
# • 3. Average MSOFA scores at day 7 and day 14. • 4. Proportion of patients who develop ARDS or experienced increased ARDS severity from baseline based on the Berlin scale. • 5. Ventilator-free survival at day 7 and day 14. • 6. Overall survival at day 7 and day 14. • 7. Proportion of patients with hypotension (MAP (Mean Arterial Pressure)<70 mm Hg or requirement for inotropes or vasopressors to maintain blood pressure) at day 7 and day 14. • 8. Proportion of patients with acute kidney injury at day 7 and day 14. • 9. Time to hospital discharge.
# IL-6 = experiment: Luminex cytokine levels in BAL: IL-6; conditions: vs vehicle disease control
# TNFα = experiment: Luminex cytokine levels in BAL: TNFα; format: in vivo, mice; conditions: vs vehicle disease control
# From the text: as §1
# • 1. […] Seal the plate with a plate sealer.
# [3] = day 7 and day 14, compared to placebo
# [4] = 100 mg/kg PO QD days -2 to 0 (final dose 1 h pre-LPS), 6 hours post-LPS
# [5] = 100 mg/kg PO QD days -2 to 0 (final dose 7 h post-LPS), 24 hours post-LPS
# [6] = 100 mg/kg PO single dose 1 h post-LPS, 8 hours post-LPS
# [7] = 300 mg/kg PO single dose 1 h post-LPS, 8 hours post-LPS
smiles,measurement,setting,value
"C[C@@H]1C[C@H]2[C@@H]3CCC4=CC(=O)C=C[C@]4(C)[C@@]3(F)[C@@H](O)C[C@]2(C)[C@@]1(O)C(=O)CO [dexamethasone, reference compound]",body weight change from day -2,[1]; 3 mg/kg PO 1x 1 h pre-LPS,did not differ statistically
"O=C(O)CNC(=O)c1ncc(-c2cccc(Cl)c2)cc1O [Compound 1, {[5-(3-chlorophenyl)-3-hydroxypyridine-2-carbonyl]amino}acetic acid]",proportions of patients with a score of 0 on the MSOFA,"[2]; at 14 days, compared to placebo",an increase
same,proportion of patients who develop ARDS or experienced increased ARDS severity from baseline based on the Berlin scale,[2]; compared to placebo,a lower or a reduction
same,average MSOFA scores,[2]; [3],a lower or a reduction
same,overall survival,[2]; [3],a greater or an increase
same,proportion of patients with hypotension (MAP <70 mm Hg or requirement for inotropes or vasopressors),[2]; [3],a lower or a reduction
same,ventilator-free survival,[2]; [3],a greater or an increase
same,proportion of patients with acute kidney injury,"[2]; day 7 and day 14, versus placebo",a lower or a reduction
same,"proportion of patients who are dead (8), on invasive mechanical ventilation or ECMO (7) or on non-invasive ventilation or high flow oxygen devices (6) on the NIAID-OS","[2]; day 14, compared to placebo",a lower or a reduction
same,time to hospital discharge,[2]; versus placebo,a shorter or a reduction
same,IL-6 levels in BAL fluids,IL-6; [4],"decrease in IL-6 levels at 6 hours post-LPS compared to vehicle disease control, though not statistically significant; also recorded: did not differ statistically"
same,IL-6 levels in BAL fluids,IL-6; [5],Significantly increased; also recorded: significant increases
same,IL-6 levels in BAL fluids,IL-6; [6],"decrease in IL-6 and TNFα levels at 8 hours post-LPS compared to vehicle disease control, though not statistically significant; also recorded: no significant differences"
same,IL-6 levels in BAL fluids,"IL-6; 300 mg/kg PO QD days -2 to 0 (final dose 1 h pre-LPS), 6 hours post-LPS","decrease in IL-6 levels at 6 hours post-LPS compared to vehicle disease control, though not statistically significant"
same,IL-6 levels in BAL fluids,IL-6; [7],"decrease in IL-6 and TNFα levels at 8 hours post-LPS compared to vehicle disease control, though not statistically significant; also recorded: no significant differences"
same,absolute body weight change,"[1]; 100 mg/kg PO QD days -2 to 0 (final dose 7 h post-LPS, 4 doses), 24 hours post-LPS",did not differ statistically
same,absolute body weight change,[1]; [6],no significant differences
same,body weight change from day -2,[1]; 300 mg/kg PO QD days -2 to 0 (final dose 1 h pre-LPS),Significantly increased body weight loss; also recorded: statistically significant absolute weight loss
same,absolute body weight change,"[1]; 300 mg/kg PO QD days -2 to 0 (final dose 7 h post-LPS, 4 doses), 24 hours post-LPS",did not differ statistically
same,absolute body weight change,[1]; [7],no significant differences
same,TNFα levels in BAL fluids,TNFα; [4],did not differ statistically
same,TNFα levels in BAL fluids,TNFα; [5],Significantly increased; also recorded: significant increases
same,TNFα levels in BAL fluids,TNFα; [6],"decrease in IL-6 and TNFα levels at 8 hours post-LPS compared to vehicle disease control, though not statistically significant; also recorded: no significant differences"
same,TNFα levels in BAL fluids,TNFα; [7],"decrease in IL-6 and TNFα levels at 8 hours post-LPS compared to vehicle disease control, though not statistically significant; also recorded: no significant differences"

# Source: US20250352527A1, “METHODS FOR TREATING VIRAL INFECTIONS, ORGAN INJURY, AND RELATED CONDITIONS” (Akebia Therapeutics, Inc., priority 2021, published 2025)
